Measurements published in ChEMBL document CHEMBL1143533, “A short, stereoselective, and common approach for the synthesis of 4,5-disubstituted delta-lactones simplactone B and its C-5 analogue” (Bioorg Med Chem Lett, 2005).

Test: Inhibitory concentration against human breast cancer cell line (HBL-100) by MTT method
Assay type: functional, cell-based
Details: Cancer cell lines

CCCCCCCCCCCCCC[C@@H]1COC(=O)C[C@H]1O
IC50: 176 nM
